Patent US8962263B2, “Methods and compositions for detecting the activation state of multiple proteins in single cells” (The Board of Trustees of the Leland Stanford Junior …, priority 2001, dated 2015)

Legend:
[1] = test system: PDK-1; test: PDK-1 immunoprecipitation kinase assay from ICAM-2 cells; type: biochemical; settings: compounds 10 μM, 1 hr
Description: A) ICAM-2, interacts with α-actinin and ezrin. ICAM-2, ICAM2-ΔC or control cells were immunoprecipiated for ICAM-2, and immunoblotted for either a-actinin or ezrin. Control lysates were not subjected to immunoprecipitation and reflect positive controls for detected interacting protein. […] ICAM-2, and control cells were serum starved (48, hrs), treated with LY294002, (10, μM, 24, hrs), or cultured in growth media, and prepared for intracellular detection of phosphatidyinositol 3,4,5, triphosphate detection by flow cytometry. […] Phosphotransfer of ATP to peptide substrate was detected by scintillation counting and presented as counts per minute CPM. […]
PDK-1 activity was determined by a PDK-1 immunoprecipiation kinase assay kit (Upstate Biotecnology, Lake Placid, N.Y.) as recommended by manufacturer. In brief, PDK-1 was immunoprecipitated from 1×10^6 treated cells, incubated with inactivated SGK enzyme, and detection of (γ-^32P) ATP incorporation to a SGK peptide substrate was measured by scintillation counting. PI3K activity was detected by developed PI3K FACS based assay (see below). AKT activity was detected by immunoprecipitation of AKT1 from cells and used in a kinase assay with GSK3 fusion protein (CST). […] Kinase reaction was terminated with SDS sample buffer boiled for 5 min, and phosphorylation state of GS3K was detected by immunoblotting and visualized using ECL detection (Amersham). […]

[2] = test system: ezrin; test: phosphotyrosine-protein based elisa for ezrin tyrosine phosphorylation upon ICAM-2 ligation; type: cell-based, human; settings: Jurkat cells
Method: A) Expression levels of ICAM-2, vary across cell lines of different origins. Quantitative flow cytometry analysis was performed to assess the number of ICAM-2 surface molecules across transformed and untransformed fibroblasts, lymphocytes of T-cell and different B-cell differentiation states and myeloid lineages (see Material and Methods for elaboration). The number of surface molecules/cell is expressed as the mean (bar)+/−SD of triplicate experiments. B) Crosslinking of endogenous ICAM-2, induces ezrin tyrosine phosphorylation and enhanced ICAM-2, interaction. Jurkat cells were crosslinked for ICAM-2 using monoclonal antibody for the indicated times and subjected to immunoprecipitation/immunoblotting as indicated. C) Inhibition of ezrin phosphotyrosine by chemical inhibitors of src and Rho-dependent kinases. D) Ezrin phosphorylation and enhanced interaction with the p85, subunit of PI3K as a function of ICAM-2. Determined as described above. E) PDK-1, activity as a function of ICAM-2, ligation, as described above). F) PI3K and AKT localize to the membrane as a function of ICAM-2, ligation. Membrane/cytosolic fractionation was performed on ICAM-2, ligated Jurkat cells as a function of time and subjected to immunoblotting for PI3K and AKT.
In order to identify upstream kineses capable of tyrosine phosphorylating ezrin as a function of ICAM-2 ligation, we developed a phosphotyrosine-protein based elisa to screen for the inhibition of ezrin tyrosine phosphorylation in vivo by various known inhibitors of protein kineses (Perez and Nolan, manuscript in preparation). […] Given the design of the screen to detect tyrosine residue phosphorylation, we speculate that activation of Rho-dependent processes may be a prerequisite for ezrin to be tyrosine phosphorylated by src (elaborated below).

[3] = test system: Jurkat T cells; test: anti-Fas induced apoptosis in ICAM-2 crosslinked Jurkat cells, annexin-V binding assay; type: cell-based, human; settings: inhibitor 10 μM 1 hour, anti-Fas 50 ng/ml 8 hours
Method: A) ICAM-2, crosslinking induced AKT activity in Jurkat T cells and subsequent phosphorylation of GSK3, FKHR, and AFX as a function of time. Serum starved Jurkat T cells were incubated with either isotype control or anti-human ICAM-2, (10, μg/ml) for the indicated times. AKT kinase activity was determined as described. Immunoblot analysis verified AKT dual phosphorylation, FKHR and GSK3 phosphorylation, and BAD phosphorylation as a function of ICAM-2, crosslinking. B) ICAM-2 crosslinking induces AKT activity in BaF3, pre-B cells. […] ICAM-2, was crosslinked on 106, Jurkat T cells using an ICAM-2, mAb (10, μg/ml) 30, minutes prior to treatment with staurosporine (+) or DMSO vehicle (−). Apoptosis was determined by flow cytometry using annexin-V binding assay. […] Cells were assessed for apoptosis by annexin-V binding assay. […]
Apoptosis was determined either by counting pyknotic nuclei, annexin-V binding by flow cytometry, or TUNEL BrdU staining by flow cytometry as indicated. Apoptosis was induced either by staurosporine (1 μm), treatment with anti-mouse Fas (5 μq/ml Santa Cruz Biotechnology (SCB), anti-human Fas ([…]) as indicated in appropriate experiment, IL-3 withdrawal-(24 hrs) or as indicated. For pyknolic nuclei count, NIH3T3 cells were grown on glass coverslips and assayed for apoptosis. Suspension cells were analyzed by nuclear staining with 25 μM acridine orange/25 μm ethidium bromide or 5 μg/ml Hoechst 33342 (Molecular Probes, Eugene, Oreg.). Apoptosis was identified by the presence of characteristic pyknotic nuclei as described (Jacobson and Raff, 1995). At least 5 individual fields were photographed and counted using a Zeiss axioscope fluorescence microscope. […] The cells were trypsinized and viable cells counted following trypan blue staining. Untreated cells were counted at the time of treatment. % survival represents (number of viable cells post-treatment)/(number of viable cells pretreatment). […] Flow cytometry analysis was performed on a BD FACSCalibur machine with CELLQuest and analyzed using FlowJo software (Tree Star).

[4] = test system: CD19+ human B cells; settings: 10 μM, 30 minutes
Method: Apoptosis was measured by annexin-V binding detected by flow cytometry, and gated for CD19+, cells. […] Apoptosis was measured by annexin-V binding assay.
Antibody cross-linking experiments were performed using mAbs to anti-ICAM-1, anti-ICAM-2, anti-ICAM-3, anti-CD43, or anti-CD44 that recognizes the N-terminal region (extracellular domain) at 10 μg/ml. Spin dialysis (Biorad) was used for buffer exchange of azide containing antibodies (0.01%) to phosphate buffered saline buffer pH 7.4. Anti-mouse IgG (Sigma) was used as a control antibody in cross-linking experiments. 1×10^6 Jurkat, 1×10^6 BaF3, or 1×10^7 PBMC cells were serum starved for 4 hours respectively (except PBMC). Cells were incubated with either mAb (10 μg/ml) or mouse IgG (10 μg/ml) at 37° C. for the indicated time. Time points began post serum starvation to attenuate most of the signaling pathways or as indicated. […] Cells extracts were taken and subjected to either immunoprecipitation or immunoblotting were appropriate. Primary cells were subjected to apoptotic treatment followed by preparation for flow cytometry. GTPγS was made cell permeant by pre-incubating compound with Fugene (Roche Biochemicals) in a 1:4 molar ratio for 30 minutes at 25° C. prior to being applied to cells.

C[C@@H](N)[C@H]1CC[C@H](C(=O)Nc2ccncc2)CC1 [Y-27632]
PDK-1 activity in ICAM-2 cells [1]: partially inhibited | tyrosine phosphorylation of ezrin [2]: inhibit the tyrosine phosphorylation of ezrin | tyrosine phosphorylation of ezrin ([2]; listed as Y-27362): abolished tyrosine phosphorylation of ezrin | ICAM-2 crosslinking protection against Fas induced apoptosis [3]: abrogated | ICAM-2 anti-apoptotic effect in CD19+ human B cells [4]: abrogated
